Publication PMC11785640, “Structure-based inhibition of acetylcholinesterase and butyrylcholinesterase with 2-Aryl-6-carboxamide benzoxazole derivatives: synthesis, enzymatic assay, and in silico studies” (Molecular Diversity, 2024)

Key:
AChE [1] = settings: cited from earlier work
AChE [2] = biological target: AChE (Electrophorus electricus, UniProt O42275); test: biochemical; type: biochemical; settings: for Ki: from Lineweaver-Burk graphs, mean ± SD, triplicate; for Selectivity index (AChE/BChE): ratio AChE/BChE
Chain of AChE (Electrophorus electricus, UniProt O42275) (O42275 24-633): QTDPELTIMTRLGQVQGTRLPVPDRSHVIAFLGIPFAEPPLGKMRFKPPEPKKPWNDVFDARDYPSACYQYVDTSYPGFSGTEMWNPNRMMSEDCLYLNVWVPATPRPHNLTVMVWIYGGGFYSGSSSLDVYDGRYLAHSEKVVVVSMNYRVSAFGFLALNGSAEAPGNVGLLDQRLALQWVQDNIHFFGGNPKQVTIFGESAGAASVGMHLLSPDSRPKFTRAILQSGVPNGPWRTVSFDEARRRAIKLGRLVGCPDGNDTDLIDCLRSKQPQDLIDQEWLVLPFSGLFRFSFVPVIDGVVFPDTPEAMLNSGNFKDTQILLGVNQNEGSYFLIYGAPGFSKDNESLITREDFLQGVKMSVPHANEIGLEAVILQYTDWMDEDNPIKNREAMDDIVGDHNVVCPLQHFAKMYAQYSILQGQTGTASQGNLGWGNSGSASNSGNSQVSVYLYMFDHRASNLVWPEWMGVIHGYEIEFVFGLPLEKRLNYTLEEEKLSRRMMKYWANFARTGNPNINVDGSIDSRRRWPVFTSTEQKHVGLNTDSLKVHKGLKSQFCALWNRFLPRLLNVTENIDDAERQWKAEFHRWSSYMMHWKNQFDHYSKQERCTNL
Experimental: (§1) These analogs were dissolved in DMSO at an initial concentration of 1 mg/mL. Around 1% of DMSO was present in the final reaction mixture. Acetylthiocholine iodide (AChI)/butyrylcholine iodide (BChI) were used as substrates for enzymatic reactions. […] The mixture was incubated at 20 °C for 20 min. Then, 50 µL of 5,5’-dithio-bis 2-nitro-benzoic acid (DTNB, 0.5 mM) and AChI/BChI were added and enzymatic reactions were initiated.
(§2) Lineweaver-Burk graphs were used for the calculation of Ki and the other parameters as described in prior studies. The Ki values were taken out from this graph. All analyses were conducted independently in triplicate, and result data are expressed as mean values ± SD [59].

BChE = BChE (Equus caballus, UniProt P81908); test: biochemical; type: biochemical; settings: for Ki: from Lineweaver-Burk graphs, mean ± SD, triplicate
Chain of BChE (P81908 whole entry): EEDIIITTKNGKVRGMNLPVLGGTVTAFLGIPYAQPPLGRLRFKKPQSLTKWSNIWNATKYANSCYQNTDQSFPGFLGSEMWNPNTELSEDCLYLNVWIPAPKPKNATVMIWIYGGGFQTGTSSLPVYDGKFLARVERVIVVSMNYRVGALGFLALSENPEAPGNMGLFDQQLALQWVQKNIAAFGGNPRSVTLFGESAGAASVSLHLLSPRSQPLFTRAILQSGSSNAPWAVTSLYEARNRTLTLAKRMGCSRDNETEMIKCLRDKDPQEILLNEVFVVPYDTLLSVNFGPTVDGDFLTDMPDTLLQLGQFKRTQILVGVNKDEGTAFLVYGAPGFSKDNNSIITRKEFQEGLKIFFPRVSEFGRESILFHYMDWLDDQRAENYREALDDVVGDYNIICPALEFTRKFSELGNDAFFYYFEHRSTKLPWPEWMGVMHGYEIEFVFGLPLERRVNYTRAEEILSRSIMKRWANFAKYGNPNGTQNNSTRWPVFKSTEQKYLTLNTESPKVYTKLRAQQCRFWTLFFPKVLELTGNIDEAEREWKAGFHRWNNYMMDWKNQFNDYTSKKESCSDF
Experimental: as §1, §2

SMILES | IC50 (AChE [1]) [nM] | concentration at which it inhibits AChE (AChE [1]) [nM] | IC50 (AChE [2]) [nM] | Ki (AChE [2]) [nM] | Selectivity index (AChE/BChE) (AChE [2]) | IC50 (BChE) [nM] | Ki (BChE) [nM]
CCN1CCN(CC(=O)Nc2ccc3nc(-c4ccc(C(C)(C)C)cc4)oc3c2)CC1 [Compound 3] | 3.67 | – | – | – | – | – | –
CN(C)C(=O)Oc1ccccc1-c1nc2ccccc2o1 [Compound 1] | – | 58.2 | – | – | – | – | –
S=c1oc2ccccc2n1CN1CCOCC1 [Compound 5, 3-morpholino methyl-2-thione benzoxazole] | 44 | – | – | – | – | – | –
Cc1ccc(CC(=O)Nc2ccc3nc(-c4ccccc4)oc3c2)cc1 [Compound 4] | 38.4 | – | – | – | – | – | –
O=C(c1ccc2nc(-c3ccc[nH]3)oc2c1)N1CCCC1 [Compound 34, (2-(1 H-pyrrol-2-yl)benzo[d]oxazol-6-yl)(pyrrolidin-1-yl)methanone] | – | – | 26.7 | 15.5 ± 1.96 | 0.32 | 53.2 | 48.2 ± 2.56
CCCN(CCC)C(=O)c1ccc2nc(-c3ccc[nH]3)oc2c1 [Compound 33, N,N-dipropyl-2-(1 H-pyrrol-2-yl)benzo[d]oxazole-6-carboxamide] | – | – | 40.2 | 26.1 ± 3.35 | 0.68 | 55.5 | 38.5 ± 8.43
O=C(c1ccc2nc(-c3ccco3)oc2c1)N1CCCC1 [Compound 40] | – | – | 52.1 | 34.9 ± 7.28 | 0.36 | 101 | 95.6 ± 20.2
O=C(c1ccc2nc(-c3ccc(-c4ccccc4)cc3)oc2c1)N1CCOCC1 [Compound 18, (2-([1,1’-Biphenyl]-4-yl)benzo[d]oxazol-6-yl)(morpholino)methanone] | – | – | 21.3 | 20.9 ± 4.22 | 0.37 | 65.1 | 56.7 ± 1.57
CN(C)C(=O)c1ccc2nc(-c3ccc[nH]3)oc2c1 [Compound 31, N,N-dimethyl-2-(1 H-pyrrol-2-yl)benzo[d]oxazole-6-carboxamide] | – | – | 36.8 | 30.7 ± 2.21 | 0.73 | 47.3 | 42 ± 6.32
O=C(c1ccc2nc(-c3cccc4ccccc34)oc2c1)N1CCOCC1 [Compound 24, Morpholino(2-(naphthalen-1-yl)benzo[d]oxazol-6-yl)methanone] | – | – | 50.9 | 45.7 ± 1.65 | 0.90 | 83.8 | 50.7 ± 14
O=C(c1ccc2nc(-c3ccccc3)oc2c1)N1CCOCC1 [Compound 12] | – | – | 29.6 | 28.6 ± 3.96 | 0.88 | 34.5 | 32.3 ± 3.25
CN(C)C(=O)c1ccc2nc(-c3cccc4ccccc34)oc2c1 [Compound 19, N,Ndimethyl-2-(naphthalen-1-yl)benzo[d]oxazole-6-carboxamide] | – | – | 39.6 | 38.8 ± 2.96 | 0.32 | 142 | 121 ± 15.5
CCCN(CCC)C(=O)c1ccc2nc(-c3cccc4ccccc34)oc2c1 [Compound 21, 2-(Naphthalen-1-yl)-N,Ndipropylbenzo[d]oxazole-6-carboxamide] | – | – | 67 | 71.6 ± 12 | 0.50 | 188 | 145 ± 11.2
O=C(c1ccc2nc(-c3cccs3)oc2c1)N1CCCC1 [Compound 46, Pyrrolidin-1-yl(2-(thiophen-2-yl)benzo[d]oxazol-6-yl)methanone] | – | – | 31.5 | 29.2 ± 0.64 | 0.33 | 84.3 | 87.5 ± 13.6
O=C(c1ccc2nc(-c3ccccc3)oc2c1)N1CCCCC1 [Compound 11] | – | – | 21.4 | 18.6 ± 2.58 | 0.25 | 61.2 | 74.4 ± 16.9
O=C(c1ccc2nc(-c3cccs3)oc2c1)N1CCCCC1 [Compound 47, Piperidin-1-yl(2-(thiophen-2-yl)benzo[d]oxazol-6-yl)methanone] | – | – | 24 | 22.3 ± 4.11 | 0.48 | 65.2 | 46.6 ± 2.1
O=C(c1ccc2nc(-c3ccccc3)oc2c1)N1CCCC1 [Compound 10] | – | – | 35.7 | 46.5 ± 6.59 | 1.27 | 51.4 | 36.6 ± 11
O=C(c1ccc2nc(-c3cccc4ccccc34)oc2c1)N1CCCCC1 [Compound 23] | – | – | 24.6 | 20.2 ± 1.47 | 0.29 | 98.3 | 69.4 ± 11.3
CCCN(CCC)C(=O)c1ccc2nc(-c3ccncc3)oc2c1 [Compound 27, N,Ndipropyl-2-(pyridin-4-yl)benzo[d]oxazole-6-carboxamide] | – | – | 49.5 | 50 ± 5.13 | 0.72 | 87.1 | 69.7 ± 4.1
CCN(CC)Cn1c(=S)oc2ccccc21 [Compound 6, 3-(diethylamino) methyl-2-thione benzoxazole] | 38 | – | – | – | – | – | –
CN(C)C(=O)c1ccc2nc(-c3ccccc3)oc2c1 [Compound 7, N,N -dimethyl-2-phenylbenzo[d]oxazole-6-carboxamide] | – | – | 32.9 | 23 ± 1.7 | 0.45 | 65.8 | 50.7 ± 6.43
CN(C)C(=O)c1ccc2nc(-c3ccncc3)oc2c1 [Compound 25, N,Ndimethyl-2-(pyridin-4-yl)benzo[d]oxazole-6-carboxamide] | – | – | 54.7 | 85.3 ± 11.2 | 1.28 | 93.6 | 66.4 ± 13.6
